In patent US20090105278A1, “Selective inhibitors of human corticosteroid syntheses” (Universitat Des Saarlandes, priority 2004, published 2009):
Structures can show the parent of a compound that is named as a salt. Where two headings read alike, the source gives them in different places.

Key:
human CYP11B2 = biological target: T1, human CYP11B2 (Homo sapiens, UniProt P19099); test: Screening test in transgenic fission yeast (S. pombe PE1) expressing human CYP11B2; format: cell-based; parameters: expressed in transfected cells
T1 sequence (P19099 25-503): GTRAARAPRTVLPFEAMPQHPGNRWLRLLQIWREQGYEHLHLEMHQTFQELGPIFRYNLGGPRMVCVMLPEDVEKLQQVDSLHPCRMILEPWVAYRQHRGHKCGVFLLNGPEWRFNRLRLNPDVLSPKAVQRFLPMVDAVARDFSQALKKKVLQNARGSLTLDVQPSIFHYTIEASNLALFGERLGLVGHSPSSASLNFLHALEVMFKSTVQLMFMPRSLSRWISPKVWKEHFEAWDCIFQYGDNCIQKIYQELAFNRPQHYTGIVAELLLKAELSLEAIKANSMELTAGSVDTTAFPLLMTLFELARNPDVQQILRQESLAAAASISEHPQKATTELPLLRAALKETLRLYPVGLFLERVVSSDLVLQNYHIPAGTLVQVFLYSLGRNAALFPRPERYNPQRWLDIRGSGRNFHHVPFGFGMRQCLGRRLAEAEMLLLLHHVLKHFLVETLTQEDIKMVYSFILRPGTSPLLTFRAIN
Method in brief: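 Deoxycorticosterone conversion to corticosterone, 18-hydroxycorticosterone and aldosterone assessed after EtOAc extraction by HPTLC with 14C phosphorimaging. Conversion rate calculated from quantified steroid spots.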

human CYP11B1 = biological target: T2, human CYP11B1 (Homo sapiens, UniProt P15538); test: V79 MZh 11B1 cells inhibition test; format: cell-based
T2 construct: expressed in transfected cells; host or cells: V79 MZh11B1 (Chinese hamster lung fibroblasts)
T2 sequence (P15538 25-503): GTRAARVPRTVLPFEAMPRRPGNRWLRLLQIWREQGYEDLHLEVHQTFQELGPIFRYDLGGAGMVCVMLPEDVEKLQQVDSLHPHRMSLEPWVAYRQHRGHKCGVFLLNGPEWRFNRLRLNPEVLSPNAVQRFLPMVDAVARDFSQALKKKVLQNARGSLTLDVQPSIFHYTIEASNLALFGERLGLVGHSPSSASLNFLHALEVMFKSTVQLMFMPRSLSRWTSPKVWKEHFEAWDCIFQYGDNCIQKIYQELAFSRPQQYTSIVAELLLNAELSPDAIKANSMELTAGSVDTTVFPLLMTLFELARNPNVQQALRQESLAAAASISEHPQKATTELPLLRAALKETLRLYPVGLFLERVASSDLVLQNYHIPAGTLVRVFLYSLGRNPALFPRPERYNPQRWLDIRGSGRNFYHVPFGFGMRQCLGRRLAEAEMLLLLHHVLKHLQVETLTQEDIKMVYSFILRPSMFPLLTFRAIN
Experimental: Both cell lines were cultured in DMEM^+ containing […] and the antibiotics penicillin and streptomycin (10%) for protection from bacterial contamination. The cells were passaged every 2-3 days after treatment with trypsin/EDTA because the doubling rate was 1-2 days depending on the number of cells. […] When there was further need, freshly thawed cells were employed.
Thereafter, the plate was stored at 37° C. and […] in a CO2 incubator. […] Controls without inhibitor were treated in the same way. The enzyme reactions were quenched by extracting the supernatant with 500 μl of EtOAc. The samples were centrifuged (10,000 g, 2 min), the solvent was removed and evaporated.
It was calculated by determining the percent inhibition for at least 3 different inhibitor concentrations, which must all be in the linear range of the sigmoidal IC50 curve (log C/% inhibition).
The calculation was effected by linear regression. The values determined were used only if they formed a straight line with a reliability of […].
The plate was developed twice with the mobile solvent chloroform:methanol:water (300:20:1). Unlabeled 11-deoxycorticosterone and corticosterone were applied as a reference for the CYP11B1 reaction. For the CYP11B2 reaction, 11-deoxycorticosterone, corticosterone, 18-hydroxycorticosterone and aldosterone were used as references. The detection of the unlabeled references was effected at 260 nm. Subsequently, imaging plates (BAS MS2340, for ^14C samples, Raytest, Straubenhardt, Germany) were exposed to the HPTLC plates for 48 h. The imaging plates were scanned with the phosphoimager system Fuji FLA 3000 (Raytest, Straubenhardt, Germany), and the steroids were quantified.

[1] = read-out: % Inhibition human hCYP11B2
[2] = hamster fibroblasts which express human CYP11B1, deoxycorticosterone substrate 100 nM, read-out: IC50 V79 11B1 hCYP11B1
[3] = S. pombe cells which express human CYP11B2, deoxycorticosterone substrate 100 nM, inhibitor 500 nM, read-out: % Inhibition human hCYP11B2

inhibition at 0.5 µM (human CYP11B2; [3])	SMILES	inhibition at 0.5 µM (human CYP11B2; [1])	inhibition at 0.5 µM (human CYP11B2; read-out: S. pombe PE1 CYP11B2 DOC % inhibition)	IC50 (human CYP11B1; Table 7: preincubation 1 h, DOC 100 nM, incubation 140 min, read-out: V79MZh11B1 CYP11B1 DOC [IC50])	IC50 (human CYP11B1; [2])
	Fc1ccc2c(c1)CC/C2=C/c1cccnc1 [Compound 5b, 3-[(Z)-(5-Fluoro-2,3-dihydro-1H-indane-1-ylidene)methyl]pyridine Hydrochloride]	89%	88.6%	125 nM	125 nM
60%	Brc1ccc2c(c1)CC/C2=C\c1cccnc1 [Compound 9a, 3-[(E)-(5-Bromo-2,3-dihydro-1H-indane-1-ylidene)methyl]pyridine Hydrochloride]				1940 nM
	Fc1ccc2c(c1)CC/C2=C/c1ccncc1 [Compound 6b, 4-[(Z)-(5-Fluoro-2,3-dihydro-1H-indane-1-ylidene)methyl]pyridine Hydrochloride]	77%			257 nM
	Brc1ccc2c(c1)CC/C2=C\c1ccncc1 [Compound 10a, 4-[(E)-(5-Bromo-2,3-dihydro-1H-indane-1-ylidene)methyl]pyridine Hydrochloride]	17%			948 nM
52%	CCOc1ccc2c(c1)CC/C2=C/c1cccnc1 [Compound 19b, 3-[(Z)-(5-Ethoxy-2,3-dihydro-1H-indane-1-ylidene)methyl]pyridine Hydrochloride]				2700 nM
82%	C(=C1/CCc2ccccc21)/c1cccnc1 [Compound 1a, 3-[(E)-2,3-Dihydro-1H-indane-1-ylidenemethyl]pyridine Hydrochloride]				888 nM

SMILES	inhibition at 0.5 µM (human CYP11B2; [3])	inhibition at 0.5 µM (human CYP11B2; [1])	inhibition at 0.5 µM (human CYP11B2; read-out: S. pombe PE1 CYP11B2 DOC % inhibition)	IC50 (human CYP11B1; Table 7: preincubation 1 h, DOC 100 nM, incubation 140 min, read-out: V79MZh11B1 CYP11B1 DOC [IC50])	IC50 (human CYP11B1; [2])
C(=C1/CCc2ccccc21)/c1cnc[nH]1 [Compound 42a, 5-[(E)-2,3-Dihydro-1H-indane-1-ylidenemethyl]-1H-imidazole]	77%				25.9 nM
